Where a chain is given by its changes, count along the chain named. Entries after “also recorded” stand apart in the source; their conditions may differ. Each block holds one molecule with its values, some of them ahead of it.
Key:
[1] = test system: FLJXXXXX-derived proteins; assay: SEC/MS spin column interaction analysis of FLJXXXXX-derived proteins and various compounds (Tables 30-1 to 30-4); format: binding, human; conditions: SEC spin column filtrate, spectral intensity increased with doses of compound and protein
[2] = target: T1, FLJ38897-derived protein (Homo sapiens, UniProt P57764); assay: SEC/MS interaction analysis, FLJ38897-derived protein (GSDMDC1); format: binding; conditions: spin column method; mixture with protein vs buffer solution alone; data not shown
T1 construct: His-tag (N); made in house; host or cells: Escherichia coli BL21star(DE3)pLysS
T1 sequence (P57764 265-484): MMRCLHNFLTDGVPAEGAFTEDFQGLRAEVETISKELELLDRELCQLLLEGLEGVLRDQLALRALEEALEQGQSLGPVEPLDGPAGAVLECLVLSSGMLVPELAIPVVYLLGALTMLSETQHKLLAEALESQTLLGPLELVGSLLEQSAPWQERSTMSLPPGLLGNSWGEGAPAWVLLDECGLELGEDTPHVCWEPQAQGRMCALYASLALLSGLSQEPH
Description: (§1) To analyze the interactions between commonly used drugs and proteins expressed from human full-length cDNA clones while keeping both the proteins and the compounds in non-modified, non-immobilized state, size exclusion chromatography (SEC) and mass analysis were used in combination. The specific procedures are shown below.
(§2) The compound-protein mixture prepared in step 1 was subjected to chromatography using an SEC column, the compound and the protein were separated by SEC, and the compound that interacted with the bound compound or protein contained in the protein fraction was analyzed using a mass analyzer.
(§3) Protein concentrations were measured using BCA Protein Assay (PIERCE), in consideration of the purity calculated by SDS-PAGE.
(§4) Mass analysis was performed using LCQ DECA XP (Thermoelectron) or Q-TOF micro (Micromass), equipped with an ESI probe. The LC pump used was Agilent 1100 (Yokogawa Analytical Systems), and the autosampler used was HTC-PAL (CTC Analytics) equipped with a cooling stacker. The SEC column used was a micro-LC column or a 384-well spin column. […]
(§5) In the 384-well spin column method, Unifilter 100 (Whatman), packed with 10 μL (dry volume) of Bio-Gel P6 (BIO-RAD) and swollen with milliQ water, was used as the SEC column. […] The SEC spin column was mounted on an acetonitrile-aliquoted 384-well U-bottom plate and centrifuged; the SEC spin column filtrate, which is a protein fraction, was recovered in 50% acetonitrile. The protein precipitate produced by the acetonitrile was removed via centrifugation and filtration for deproteinization; the resulting filtrate was concentrated by centrifugal concentration and re-dissolved in 10 μL of 50% methanol to obtain a mass analysis sample. The mobile phase supplied to the mass analyzer was 0.1% formic acid/50% methanol solution in the positive ion mode, and 0.1% ammonia/50% methanol solution in the negative ion mode; these mobile phases were used at a flow rate of 40 μL/min. 2-μL of mass analysis samples were injected using an autosampler at 2-minute intervals; the mass spectral intensity of the compound was measured to retrieve the spectral intensity of the pharmaceutical compound contained in the SEC spin column filtrate (protein fraction eluted from SEC).

[3] = target: T2, FLJ41991-derived protein (Homo sapiens, UniProt P57764, E293G); assay: SEC/MS interaction analysis, FLJ41991-derived protein (GSDMDC1); format: binding
T2 construct: His-tag (N); made in house; host or cells: Escherichia coli BL21star(DE3)pLysS (pDEST17)
T2 sequence (P57764 265-484 E293G): T1 sequence (P57764 265-484) with E29G
Description: as §1, §2, §3, §4, §5

[4] = target: T3, FLJ12857-derived protein (Homo sapiens, UniProt O75781, T107A); assay: SEC/MS interaction analysis, FLJ12857-derived protein (Paralemmin; PALM); format: binding
T3 construct: His-tag (N); made in house; host or cells: Escherichia coli BL21star(DE3)pLysS
T3 sequence (O75781 74-343 isoform O75781-2 T107A): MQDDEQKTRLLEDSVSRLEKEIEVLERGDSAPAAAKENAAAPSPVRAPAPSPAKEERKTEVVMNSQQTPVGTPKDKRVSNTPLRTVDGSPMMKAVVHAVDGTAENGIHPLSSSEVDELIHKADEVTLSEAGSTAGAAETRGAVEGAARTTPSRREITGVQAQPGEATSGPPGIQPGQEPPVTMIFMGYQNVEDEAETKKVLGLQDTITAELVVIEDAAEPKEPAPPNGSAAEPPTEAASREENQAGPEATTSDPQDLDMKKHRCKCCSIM
Description: as §1, §2, §3, §4, §5

[5] = compound 12.5 μM, protein 10 μM
[6] = compound 12.5 μM, protein 25 μM
[7] = compound 62.5 μM, protein 10 μM
[8] = compound 62.5 μM, protein 25 μM
[9] = spin column method, doses of both compound and protein varied

interaction judged from mass spectrum peak intensity of the compound in the spin column filtrate [2]: there was an interaction
spectrum intensity of the compound in the SEC spin column filtrate ([3]; compound 12.5 μM, protein 0 μM): 16334
spectrum intensity of the compound in the SEC spin column filtrate ([3]; compound 12.5 μM, protein 5 μM): 46239
spectrum intensity of the compound in the SEC spin column filtrate [3, 5]: 101775
spectrum intensity of the compound in the SEC spin column filtrate [3, 6]: 453818
spectrum intensity of the compound in the SEC spin column filtrate ([3]; compound 25 μM, protein 0 μM): 27931
spectrum intensity of the compound in the SEC spin column filtrate ([3]; compound 25 μM, protein 5 μM): 100287
spectrum intensity of the compound in the SEC spin column filtrate ([3]; compound 25 μM, protein 10 μM): 273106
spectrum intensity of the compound in the SEC spin column filtrate ([3]; compound 25 μM, protein 25 μM): 1788847
spectrum intensity of the compound in the SEC spin column filtrate ([3]; compound 62.5 μM, protein 0 μM): 97153
spectrum intensity of the compound in the SEC spin column filtrate ([3]; compound 62.5 μM, protein 5 μM): 528117
spectrum intensity of the compound in the SEC spin column filtrate [3, 7]: 2017157
spectrum intensity of the compound in the SEC spin column filtrate [3, 8]: 4385022
interaction judged from spectrum intensity of the compound in the SEC spin column filtrate (protein fraction eluted from SEC) [3, 9]: concentration-dependent interaction
SMILES: OC(c1cc(C(F)(F)F)nc2c(C(F)(F)F)cccc12)C1CCCCN1 (stereo not shown) [mefloquine]
FLJ No of the derived protein with which the compound was judged to exhibit a concentration-dependent interaction [1]: FLJ37909; also recorded: FLJ38897; also recorded: FLJ41991

interaction judged from mass spectrum peak intensity of the compound in the spin column filtrate [2]: there was an interaction
SMILES: C1CCC(C(CC2CCCCN2)C2CCCCC2)CC1 (stereo not shown) [perhexyline]
FLJ No of the derived protein with which the compound was judged to exhibit a concentration-dependent interaction ([1]; listed as perhexiline): FLJ37909; also recorded: FLJ38897

SMILES: CC(=O)O[C@H]1C[C@@H]2CC[C@@H]3[C@H](CC[C@@]4(C)[C@H]3C[C@H]([N+]3(C)CCCCC3)[C@@H]4OC(C)=O)[C@@]2(C)C[C@@H]1[N+]1(C)CCCCC1 [pancuronium bromide]
FLJ No of the derived protein with which the compound was judged to exhibit a concentration-dependent interaction [1]: FLJ12857
spectrum intensity of the compound in the SEC spin column filtrate ([4]; compound 12.5 μM, protein 0 μM): 50699
spectrum intensity of the compound in the SEC spin column filtrate ([4]; compound 12.5 μM, protein 5 μM): 65210
spectrum intensity of the compound in the SEC spin column filtrate [4, 5]: 163033
spectrum intensity of the compound in the SEC spin column filtrate [4, 6]: 193021
spectrum intensity of the compound in the SEC spin column filtrate ([4]; compound 25 μM, protein 0 μM): 170740
spectrum intensity of the compound in the SEC spin column filtrate ([4]; compound 25 μM, protein 5 μM): 491313
spectrum intensity of the compound in the SEC spin column filtrate ([4]; compound 25 μM, protein 10 μM): 747644
spectrum intensity of the compound in the SEC spin column filtrate ([4]; compound 25 μM, protein 25 μM): 725722
spectrum intensity of the compound in the SEC spin column filtrate ([4]; compound 62.5 μM, protein 0 μM): 1417386
spectrum intensity of the compound in the SEC spin column filtrate ([4]; compound 62.5 μM, protein 5 μM): 1918601
spectrum intensity of the compound in the SEC spin column filtrate [4, 7]: 2231237
spectrum intensity of the compound in the SEC spin column filtrate [4, 8]: 2511342
interaction judged from spectrum intensity of the compound in the SEC spin column filtrate (protein fraction eluted from SEC) [4, 9]: concentration-dependent interaction

From patent US20090143285A1, “TARGET PROTEIN AND TARGET GENE FOR DRUG DISCOVERY AND SCREENING METHOD” (REVERSE PROTEOMICS RESEARCH INSTITUTE CO., LTD., priority 2005, published 2009)
